The conditions of this series: Crystal; DTA.

The values below come from the NIST ThermoML archive (doi:10.1021/je400260c).

Numbers after ± are expanded uncertainties.

For the molecule `CCCCCCCCCCCCCCCC(=O)O` [hexadecanoic acid], the Normal melting temperature amounted to 63 ± 1.1 °C.
To `CCCCCCCCCCCC(=O)O` [dodecanoic acid] belongs 44.6 ± 0.9 °C; to `CCCCCCCCCCCCCC(=O)O` [tetradecanoic acid], 54.4 ± 0.5 °C.
To `CCCCCCCCCCCCCCCCCC(=O)O` [octadecanoic acid] belongs 69.8 ± 0.5 °C.
